Test results from US20230192706A1, “BICYCLIC AMINES AS CDK2 INHIBITORS” (Incyte Corporation, priority 2021, published 2023).

These compounds were tested against T1, CDK2/Cyclin E1 (Homo sapiens, UniProt P24941) (assay: CDK2/Cyclin E1 HTRF enzyme activity assay). Conditions: 1 mM ATP; CDK2/Cyclin E1 0.25 nM; 60 minutes at room temperature.
T1 construct: full-length human CDK2 co-expressed as N-terminal GST-tagged protein; GST (N); purchased Carna 04-165; host or cells: baculovirus expression system
Type: biochemical
Procedure: CDK2/Cyclin E1 enzyme activity assays utilize full-length human CDK2 co-expressed as N-terminal GST-tagged protein with FLAG-Cyclin E1 in a baculovirus expression system (Carna Product Number 04-165). Assays were conducted in white 384-well polystyrene plates in a final reaction volume of 8 µL. CDK2/Cyclin E1 (0.25 nM) was incubated with the compounds of the Examples (40 nL serially diluted in DMSO) in the presence of ATP (50 µM or 1 mM) and 50 nM ULight^Tm-labeled eIF4E-binding protein 1 (THR37/46) peptide (PerkinElmer) in assay buffer (containing 50 mM HEPES pH 7.5, 1 mM EGTA, 10 mM MgCl2, 2 mM DTT, 0.05 mg/mL BSA, and 0.01% Tween 20) for 60 minutes at room temperature. The reactions were stopped by the addition of EDTA and Europium-labeled anti-phospho-4E-BP1 antibody (PerkinElmer), for a final concentration of 15 mM and 1.5 nM, respectively. HTRF signals were read after 1 hour at room temperature on a PHERAstar FS plate reader (BMG Labtech). Data was analyzed with IDBS XLFit and GraphPad Prism 5.0 software using a three or four parameter dose response curve to determine IC50 for each compound.

IC50, < 10 nM:
CC(C)Oc1c(-c2cn[nH]c2)ncn2nc(NC3CCOC(C)C3)nc12 (single isomer, unassigned) [Example 6, 8-Isopropoxy-N-(2-methyltetrahydro-2H-pyran-4-yl)-7-(1H-pyrazol-4-yl)-[1,2,4]triazolo[1,5-c]pyrimidin-2-amine]
Cc1cc(-c2c(-c3cn[nH]c3)ccn3nc(NC4CCOCC4)nc23)ccc1C#N [Example 1, 4-(7-(1H-Pyrazol-4-yl)-2-((tetrahydro-2H-pyran-4-yl)aminoamino)-[1,2,4]triazolo[1,5-a]pyridin-8-yl)-2-methylbenzonitrile]
Cc1cc(-c2c(-c3cn[nH]c3)ccn3nc(N[C@H]4CCOC[C@H]4F)nc23)c(F)cc1C#N [Example 2, 5-Fluoro-4-(2-(((3S,4S)-3-fluorotetrahydro-2H-pyran-4-yl)amino)-7-(1H-pyrazol-4-yl)-[1,2,4]triazolo[1,5-a]pyridin-8-yl)-2-methylbenzonitrile]
F[C@@H]1CCN(c2c(-c3cn[nH]c3)ccn3nc(N[C@H]4CCOC[C@H]4F)nc23)C1 [Example 3, 8—((R)—3-Fluoropyrrolidin-1-yl)-N((3S,4S)-3-fluorotetrahydro-2H-pyran-4-yl)-7-(1H-pyrazol-4-yl)-[1,2,4]triazolo[1,5-α]pyridin-2-amine]
F[C@@H]1COCC[C@@H]1Nc1nc2c(N3CCCC(F)(F)C3)c(-c3cn[nH]c3)ccn2n1 [Example 4, 8-(3,3-Difluoropiperidin-1-yl)-N-((3S,4S)-3-fluorotetrahydro-2H-pyran-4-yl)-7-(1H-pyrazol-4-yl)-[1,2,4]triazolo[1,5-α]pyridin-2-amine]
CC(C)Oc1c(-c2cn[nH]c2)ccn2nc(N[C@H]3CCOC[C@H]3F)nc12 [Example 5, N-((3S,4S)-3-Fluorotetrahydro-2H-pyran-4-yl)-8-isopropoxy-7-(1H-pyrazol-4-yl)-[1,2,4]triazolo[1,5-α]pyridin-2-amine]
CC(C)Oc1c(-c2cn[nH]c2)ncn2nc(N[C@H]3CCOC[C@H]3F)nc12 [Example 7, N-((3S, 4S)-3-Fluorotetrahydro-2H-pyran-4-yl)-8-isopropoxy-7-(1H-pyrazol-4-yl)-[1,2,4]triazolo[1,5-c]pyrimidin-2-amine]
C[C@H](Oc1c(-c2cn[nH]c2)ncc2nc(N[C@H]3CCOC[C@H]3F)nn12)C(F)(F)F [Example 8, N-((3S,4S)-3-Fluorotetrahydro-2H-pyran-4-yl)-6-(1H-pyrazol-4-yl)-5-(((5)-1,1,1-trifluoropropan-2-yl)oxy)-[1,2,4]triazolo[1,5-α]pyrazin-2-amine]
C[C@@H](Oc1c(-c2cn[nH]c2)ncc2nc(N[C@H]3CCOC[C@H]3F)nn12)C(F)(F)F [Example 9, N-((3S,4S)-3-Fluorotetrahydro-2H-pyran-4-yl)-6-(1H-pyrazol-4-yl)-5—(((R)—1,1,1-trifluoropropan-2-yl)oxy)-[1,2,4]triazolo[1,5-α]pyrazin-2-amine]
FC(F)C1(Oc2c(-c3cn[nH]c3)ncc3nc(N[C@H]4CCOC[C@H]4F)nn23)CCC1 [Example 10, 5-(1-(Difluoromethyl)cyclobutoxy)-N-((3S,4S)-3-fluorotetrahydro-2H-pyran-4-yl)-6-(1H-pyrazol-4-yl)-[1,2,4]triazolo[1,5-α]pyrazin-2-amine]
FC(F)C1(Oc2c(-c3cn[nH]c3)ncc3nc(NC4CCOCC4)nn23)CCC1 [Example 11, 5-(1-(Difluoromethyl)cyclobutoxy)-6-(1H-pyrazol-4-yl)-N-(tetrahydro-2H-pyran-4-yl)-[1,2,4] triazolo [1,5-α] pyrazin-2-amine]
CC(C)Oc1c(-c2cn[nH]c2)ncc2nc(N[C@H]3CCOC[C@H]3F)nn12 [Example 12, N-((3S,4S)-3-Fluorotetrahydro-2H-pyran-4-yl)-5-isopropoxy-6-(1H-pyrazol-4-yl)-[1,2,4]triazolo[1,5-α] pyrazin-2-amine]
F[C@@H]1COCC[C@@H]1Nc1nc2cnc(-c3cn[nH]c3)c(N3CCCCC3)n2n1 [Example 13, N-((3S,4S)-3-Fluorotetrahydro-2H-pyran-4-yl)-5-(piperidin-1-yl)-6-(1H-pyrazol-4-yl)-[1,2,4]triazolo[1,5-α]pyrazin-2-amine]
